Data from the supplement of paper PMC13207355.

Assays:
Conditions in all cases: exposure time: 72 h
[1] = test system: E13 (patient-derived glioblastoma stem cells of classical subtype); test: surviving fraction (nuclei count normalised to DMSO); higher = more cells surviving (less toxic)
[2] = test system: E21 (patient-derived glioblastoma stem cells of mesenchymal subtype); test: as above
[3] = test system: E28 (patient-derived glioblastoma stem cells of classical subtype); test: as above
[4] = test system: E31 (patient-derived glioblastoma stem cells of proneural subtype); test: as above
[5] = test system: E34 (patient-derived glioblastoma stem cells of proneural subtype); test: as above
[6] = test system: E57 (patient-derived glioblastoma stem cells of mesenchymal subtype); test: as above
[7] = test system: FT3469 (normal neural stem cell line); test: as above
[8] = test system: E13; test: phenotypic distance (Euclidean, principal components) from DMSO controls (arbitrary units); higher = stronger morphological change
[9] = test system: E21; test: as above
[10] = test system: E28; test: as above
[11] = test system: E31; test: as above
[12] = test system: E34; test: as above
[13] = test system: E57; test: as above
[14] = test system: FT3469; test: as above
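Wherever phenotypic distance (Euclidean, principal components) from DMSO controls is given: cell Painting imaging in 384-well plates, CellProfiler features reduced to at least 20 principal components, Euclidean distance versus same-plate DMSO vehicle wells (0.1% v/v), median over six images per well.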
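Wherever surviving fraction (nuclei count normalised to DMSO) is given: nuclei counted by high-content imaging of Hoechst-stained cells in laminin-coated 384-well plates, relative to 0.1% DMSO vehicle wells, with staurosporine as cell-death control.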

C#C[C@]1(O)CC[C@H]2[C@@H]3CCc4cc(OC5CCCC5)ccc4[C@H]3CC[C@@]21C [Quinestrol]
Conditions | phenotypic distance | surviving fraction
[1], 4.1 nM | – | 1.06
[1], 12.3 nM | – | 1.04
[1], 37 nM | – | 1.11
[1], 111.1 nM | – | 1.07
[1], 333.3 nM | – | 1.02
[1], 1000 nM | – | 0.946
[1], 3000 nM | – | 0.347
[2], 4.1 nM | – | 1.01
[2], 12.3 nM | – | 0.938
[2], 37 nM | – | 1.05
[2], 111.1 nM | – | 0.982
[2], 333.3 nM | – | 1.02
[2], 1000 nM | – | 0.873
[2], 3000 nM | – | 0.617
[3], 4.1 nM | – | 1.13
[3], 12.3 nM | – | 1.04
[3], 37 nM | – | 1.08
[3], 111.1 nM | – | 1.1
[3], 333.3 nM | – | 1.04
[3], 1000 nM | – | 1.19
[3], 3000 nM | – | 1.01
[4], 4.1 nM | – | 1.02
[4], 12.3 nM | – | 0.942
[4], 37 nM | – | 1.09
[4], 111.1 nM | – | 1.07
[4], 333.3 nM | – | 0.981
[4], 1000 nM | – | 1.01
[4], 3000 nM | – | 0.848
[5], 4.1 nM | – | 1.01
[5], 12.3 nM | – | 1.07
[5], 37 nM | – | 1.01
[5], 111.1 nM | – | 1.07
[5], 333.3 nM | – | 1.15
[5], 1000 nM | – | 0.967
[5], 3000 nM | – | 0.918
[6], 4.1 nM | – | 1.05
[6], 12.3 nM | – | 1.05
[6], 37 nM | – | 1.01
[6], 111.1 nM | – | 1.06
[6], 333.3 nM | – | 1.01
[6], 1000 nM | – | 1.03
[6], 3000 nM | – | 0.693
[7], 4.1 nM | – | 0.963
[7], 12.3 nM | – | 1.03
[7], 37 nM | – | 1.11
[7], 111.1 nM | – | 1.09
[7], 333.3 nM | – | 1.2
[7], 1000 nM | – | 0.888
[7], 3000 nM | – | 0.938
[8], 4.1 nM | 0.478 | –
[8], 12.3 nM | 0.526 | –
[8], 37 nM | 0.837 | –
[8], 111.1 nM | 0.697 | –
[8], 333.3 nM | 0.689 | –
[8], 1000 nM | 1.18 | –
[8], 3000 nM | 7.05 | –
[9], 4.1 nM | 0.608 | –
[9], 12.3 nM | 0.48 | –
[9], 37 nM | 0.746 | –
[9], 111.1 nM | 0.53 | –
[9], 333.3 nM | 0.819 | –
[9], 1000 nM | 2.32 | –
[9], 3000 nM | 6.37 | –
[10], 4.1 nM | 0.438 | –
[10], 12.3 nM | 2.42 | –
[10], 37 nM | 0.788 | –
[10], 111.1 nM | 0.466 | –
[10], 333.3 nM | 0.753 | –
[10], 1000 nM | 0.514 | –
[10], 3000 nM | 0.675 | –
[11], 4.1 nM | 0.447 | –
[11], 12.3 nM | 0.67 | –
[11], 37 nM | 1.03 | –
[11], 111.1 nM | 0.71 | –
[11], 333.3 nM | 0.698 | –
[11], 1000 nM | 0.864 | –
[11], 3000 nM | 3.81 | –
[12], 4.1 nM | 0.544 | –
[12], 12.3 nM | 0.554 | –
[12], 37 nM | 0.597 | –
[12], 111.1 nM | 0.985 | –
[12], 333.3 nM | 1.09 | –
[12], 1000 nM | 0.707 | –
[12], 3000 nM | 1.82 | –
[13], 4.1 nM | 1.71 | –
[13], 12.3 nM | 1.01 | –
[13], 37 nM | 0.583 | –
[13], 111.1 nM | 0.81 | –
[13], 333.3 nM | 0.452 | –
[13], 1000 nM | 0.7 | –
[13], 3000 nM | 3.72 | –
[14], 4.1 nM | 0.479 | –
[14], 12.3 nM | 0.739 | –
[14], 37 nM | 0.643 | –
[14], 111.1 nM | 1.01 | –
[14], 333.3 nM | 0.84 | –
[14], 1000 nM | 0.699 | –
[14], 3000 nM | 1.58 | –
